# Measurements reported in PubChem BioAssay (NCI).
# Where “and” joins values, the source holds several entries; their conditions need not be identical. Equal entries are not always repeated.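 All cell lines were grown in 96-well plates and treated with compound for 48 hours. GI50 = concentration required for 50% inhibition of growth. TGI: concentration producing complete growth inhibition.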
# Legend:
# Assay in all cases: DTP human tumour cell line panel, 48 h
# CCRF-CEM leukemia = test system: CCRF-CEM leukemia
# EKVX NSCLC = test system: EKVX NSCLC
# HOP-62 NSCLC = test system: HOP-62 NSCLC
# HOP-92 NSCLC = test system: HOP-92 NSCLC
# HS 578T breast = test system: HS 578T breast
# K-562 leukemia = test system: K-562 leukemia
# NCI-H23 lung = test system: NCI-H23 lung
# NCI-H460 lung = test system: NCI-H460 lung
# SN12C renal = test system: SN12C renal
# SNB-19 CNS = test system: SNB-19 CNS
SMILES,GI50 (CCRF-CEM leukemia),TGI (CCRF-CEM leukemia),GI50 (EKVX NSCLC),TGI (EKVX NSCLC),GI50 (HOP-62 NSCLC),TGI (HOP-62 NSCLC),GI50 (HOP-92 NSCLC),TGI (HOP-92 NSCLC),GI50 (HS 578T breast),TGI (HS 578T breast),GI50 (K-562 leukemia),TGI (K-562 leukemia),GI50 (NCI-H23 lung),TGI (NCI-H23 lung),GI50 (NCI-H460 lung),TGI (NCI-H460 lung),GI50 (SN12C renal),TGI (SN12C renal),GI50 (SNB-19 CNS),TGI (SNB-19 CNS)
CSc1nc(NC2OC(COC(C)=O)C(OC(C)=O)C(OC(C)=O)C2OC(C)=O)c(N=CC=Nc2c(NC3OC(COC(C)=O)C(OC(C)=O)C(OC(C)=O)C3OC(C)=O)nc(SC)n(C)c2=O)c(=O)n1C (stereo not drawn),> 50 µM,> 100 µM,> 50 µM,> 100 µM,21.2 µM,50 µM and 29.8 µM,14.8 µM,50 µM and 64.5 µM,13.2 µM,50 µM and 75.7 µM,> 50 µM,> 100 µM,> 50 µM,> 100 µM,> 50 µM,> 100 µM,> 50 µM,> 100 µM,21.1 µM,50 µM and 92.1 µM
COC(=O)C1=CN(CC2=CC(=O)C(C)=CC2=O)C=C(C(=O)OC)C1c1cccc(OC)c1,2.38 µM,> 21.9 µM,12.2 µM,27.2 µM,19.3 µM,38.9 µM,10.6 µM,33.8 µM,8.66 µM,44.9 µM,3.84 µM,> 35.6 µM,18.4 µM,53.5 µM,14.3 µM,49.7 µM,22.9 µM,> 60.5 µM,26 µM,> 79.2 µM
Cc1ccc2c(C3C(C#N)=C(N)Oc4cc5ccccc5cc43)cc(=O)oc2c1 (stereo not drawn),0.976 µM,> 100 µM,4.44 µM,> 100 µM,1.22 µM,> 100 µM,19.7 µM,84 µM,3.29 µM,> 100 µM,0.394 µM,> 100 µM,6.06 µM,> 100 µM,0.883 µM,15.5 µM,5.27 µM,> 100 µM,1.79 µM,> 100 µM
C=COC(=O)N[C@H]1CCc2cc(OC)c(OC)c(OC)c2-c2ccc(SC)c(=O)cc21,–,> 80.1 µM,–,> 100 µM,–,> 86.6 µM,–,22.8 µM,–,> 4.64 µM,–,> 31.6 µM,–,12.1 µM,–,0.991 µM,–,54.7 µM,–,24.8 µM
CC(C)=CCc1cc(O)cc2c1OC(C=C(C)C)C1=C2C(=O)C2=C(C1=O)S(=O)(=O)CCN2 (stereo not drawn),5.81 µM,> 16.7 µM,3.3 µM,9.16 µM,5.66 µM,> 16.7 µM,6.05 µM,> 16.7 µM,3.15 µM,13 µM,4.68 µM,> 16.7 µM,3.85 µM,12.9 µM,5.23 µM,> 16.7 µM,2.7 µM,5.45 µM,2.78 µM,5.15 µM
COc1ccccc1Nc1ncc(-c2ccccc2)o1,> 25 µM,> 25 µM,> 25 µM,> 25 µM,> 25 µM,> 25 µM,> 25 µM,> 25 µM,> 5.12 µM,> 25 µM,> 25 µM,> 25 µM,> 25 µM,> 25 µM,> 25 µM,> 25 µM,> 25 µM,> 25 µM,> 25 µM,> 25 µM
COC(=O)c1ccc(-c2c(C#N)[n+](=O)c3cc(Cl)c(Cl)cc3n2[O-])cc1,2.85 µM,7.79 µM,21.7 µM,47.8 µM,16.8 µM,34.8 µM,11.1 µM,34.9 µM,25.7 µM,92.2 µM,5.54 µM,21.8 µM,11.7 µM,29.3 µM,18.6 µM,44.7 µM,14.7 µM,29.3 µM,18.2 µM,38.9 µM
CC12CCC3c4ccc(O)cc4CCC3C1C/C(=N\O)C2O (stereo not drawn),–,> 100 µM,–,> 100 µM,–,> 100 µM,–,> 100 µM,–,> 100 µM,–,> 100 µM,–,> 100 µM,–,> 100 µM,–,> 100 µM,–,> 100 µM
CN(C)C(=S)Sc1ccc([N+](=O)[O-])cc1[N+](=O)[O-],0.406 µM,> 43.6 µM,5.29 µM,19.7 µM,8.26 µM,21.3 µM,2.95 µM,11.2 µM,9.95 µM,56.3 µM,1.06 µM,25.6 µM,2.93 µM,11.6 µM,0.74 µM,4.57 µM,3.24 µM,11.2 µM,11 µM,25.1 µM
CCOC(=O)/C=C/c1ccc(C#Cc2ccccc2)cc1,> 100 µM,> 100 µM,0.0608 µM,43.1 µM,> 100 µM,> 100 µM,> 100 µM,> 100 µM,> 100 µM,> 100 µM,72 µM,> 100 µM,95 µM,> 100 µM,66.1 µM,> 100 µM,> 100 µM,> 100 µM,> 100 µM,> 100 µM
COc1cc(/C=C/C(=O)c2cccc(-n3cc(-c4ccc(Cl)cc4)[nH]c3=O)c2)ccc1O,0.706 µM,4.42 µM,6.6 µM,> 95.2 µM,3.87 µM,15 µM,1.52 µM,7.05 µM,3.78 µM,26.9 µM,2.36 µM,> 26.4 µM,4.43 µM,24.4 µM,6.43 µM,21.7 µM,2.81 µM,> 60.9 µM,3.52 µM,15.6 µM
CCc1c(Cl)c(C)cc(O)c1Cl,–,91.7 µM,–,> 100 µM,–,> 100 µM,–,92.3 µM,–,99.7 µM,–,> 100 µM,–,> 100 µM,–,> 100 µM,–,30.9 µM,–,> 100 µM
COc1ccc(C2=C(c3ccc(OC)cc3)C(=O)N3CCCC3C2)cc1 (stereo not drawn),5.49 µM,> 48.2 µM,30.2 µM,> 100 µM,16.5 µM,> 100 µM,> 95.1 µM,> 100 µM,69.5 µM,> 100 µM,–,> 100 µM,41.9 µM,> 100 µM,1.81 µM,> 40.9 µM,22.5 µM,> 100 µM,45.6 µM,> 100 µM
CN(C)c1ccc(N=Nc2ccccn2)c(O)c1,0.0979 µM,–,0.2 µM,14.4 µM,0.311 µM,> 54 µM,0.666 µM,50.2 µM,3.53 µM,> 85.5 µM,0.355 µM,> 100 µM,0.564 µM,> 100 µM,0.296 µM,> 32.1 µM,0.396 µM,> 100 µM,0.501 µM,> 100 µM
COc1cc2c3c(c1OC)-c1cc4c(cc1CC3(C#N)N(C(=O)c1ccccc1)CC2)OCO4 (stereo not drawn),–,> 100 µM,–,> 100 µM,–,> 76.1 µM,–,32.5 µM,–,82 µM,–,> 100 µM,–,54.1 µM,–,> 100 µM,–,> 100 µM,–,46 µM
CS(=O)(=O)Nc1cc(-c2ccc3ncnc(Nc4c(Cl)ccc5c4OCO5)c3c2)cnc1Cl,0.15 µM,6.84 µM,0.116 µM,0.824 µM,0.156 µM,3.53 µM,0.0597 µM,0.639 µM,0.0477 µM,0.521 µM,0.484 µM,> 48.4 µM,0.25 µM,4 µM,0.236 µM,4.76 µM,0.202 µM,> 100 µM,0.244 µM,3.42 µM
